According to patent US20120108501A1, “Protease Inhibitors” (priority 2009, published 2012):
Like-named read-outs stand apart in the source and are kept apart here.

Assays:
[1] = Pharmacokinetics of PEGylated protease inhibitor prodrugs in rats; format: in vivo, male Sprague-Dawley rats; design: AUCall / AUC: concentration or dose not given beside the values; settings: prodrug in plasma; for concentration at 24 hr: read-out: Cmin(24 hr); for AUC / Cmax / AUCall: mean ± SD; for half-life: read-out: t½(z) (converted)
Procedure: Pharmacokinetic analysis of protease inhibitors described herein was conducted. To evaluate the pharmacokinetics of PEGylated protease inhibitor conjugates with releasable lipophilic attachments, test compounds were administered to male Sprague-Dawley rats.
At various times following test article administration, serial blood samples were collected from indwelling jugular vein catheters and transferred to micro-tubes containing 7.5 μL of 20% w/v K2EDTA as an anticoagulant. Following processing of the blood samples to plasma (10 minutes at 10000 rpm, Centrifuge Model: Kubota 3500), plasma concentrations of the test article or corresponding PEGylated molecule released from the test article was measured using LC-MS/MS methods. Pharmacokinetic parameters were estimated using noncompartmental methods.
Table 3 presents a summary of pharmacokinetic parameters of PEGylated protease inhibitor prodrugs, wherein Cmax is the maximum (peak) concentration, AUCall represents the area under the concentration-time curve from zero to time of last concentration value, T½ is half life, and MRTlast is the mean residence time to last observable concentration

[2] = Pharmacokinetics of released PEGylated protease inhibitor following P.O. administration of prodrugs in rats; format: in vivo, male Sprague-Dawley rats; design: AUCall Mean: concentration or dose not given beside the values; C24 Mean: unit not given here; settings: rats (n = 4-5); for C24 Mean: concentration at 24 hours
How it was run: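 Prodrugs given orally to male Sprague-Dawley rats, with serial blood via jugular catheter into K2EDTA. Plasma levels of test article or released PEGylated inhibitor measured by LC-MS/MS. PK parameters from noncompartmental analysis.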

[3] = male, Sprague-Dawley, rat, in vivo
[4] = male, Sprague-Dawley, rat, in vivo, read-out: Cmax
[5] = mPEG5-atazanavir in plasma after PO administration of mPEG5-ATV or of the listed prodrug
[6] = mPEG3-atazanavir in plasma after PO administration of mPEG3-ATV or of the listed prodrug

Compound | MRT last [1, 3] [h] | concentration at 24 hr [1, 3] [ng/mL] | AUC [1, 3] [ng·h/mL] | Cmax [1, 4] [ng/mL] | half-life [1, 3] [h] | C24 Mean [2, 5] | AUCall Mean [2, 5] [ng·h/mL] | Cmax Mean [2, 5] [ng/mL] | MRT last Mean [2, 5] [h] | Tmax Median [2, 5] [h] | C24 Mean [2, 6] | AUCall Mean [2, 6] [ng·h/mL] | Cmax Mean [2, 6] [ng/mL] | MRT last Mean [2, 6] [h] | Tmax* Median [2, 6] [h] | MRTlast [1] [h] | t½(z) [1] [h] | Cmin(24 hr) [1] [ng/mL] | AUCall [1] [ng·h/mL] | Cmax [1] [ng/mL]
COCCOCCOCCOCCOCCOC(=O)N[C@H](C(=O)N[C@@H](Cc1ccccc1)[C@H](CN(Cc1ccc(-c2ccccn2)cc1)NC(=O)[C@@H](NC(=O)OC)C(C)(C)C)OC(=O)[C@H](CC(C)C)NC(=O)[C@@H](N)CC(C)C)C(C)(C)C.Cl [Leu-Leu-mPEG5-Atazanavir HCl, Leu-Leu-mPEG5-Atazanavir Hydrochloride] | 3.59 ± 3.27 | 0.201 ± 0.401 | 24.9 ± 6.24 | 7.21 ± 0.417 | 3.6 ± 2.59 | 2.98 | 118 | 14.1 | 10.7 | 0.750 | – | – | – | – | – | – | – | – | – | –
COCCOCCOCCOC(=O)N[C@H](C(=O)N[C@@H](Cc1ccccc1)[C@H](CN(Cc1ccc(-c2ccccn2)cc1)NC(=O)[C@@H](NC(=O)OC)C(C)(C)C)OC(=O)[C@H](Cc1ccccc1)NC(=O)[C@@H](N)CC(C)C)C(C)(C)C.Cl [Leu-Phe-mPEG3-Atazanavir, Leu-Phe-mPEG3-Atazanavir Hydrochloride] | 3.42 ± 0.916 | 0.154 ± 0.307 | 157 ± 30.3 | 41.9 ± 7.92 | 3.2 ± 0.981 | – | – | – | – | – | 2.35 | 448 | 84.9 | 7.56 | 2.00 | – | – | – | – | –
COCCOCCOCCOCCOCCOC(=O)N[C@H](C(=O)N[C@@H](Cc1ccccc1)[C@H](CN(Cc1ccc(-c2ccccn2)cc1)NC(=O)[C@@H](NC(=O)OC)C(C)(C)C)OC(=O)[C@H](Cc1ccccc1)NC(=O)[C@@H](N)CC(C)C)C(C)(C)C.Cl [Leu-Phe-mPEG5-Atazanavir HCl, Leu-Phe-mPEG5-Atazanavir Hydrochloride] | – | – | – | – | – | – | 147 | 25.6 | 9.33 | 1.50 | – | – | – | – | – | 7.57 ± 7.76 | 0.825 | 1.16 ± 2.31 | 53.8 ± 34.1 | 16.5 ± 14.9
COCCOCCOCCOCCOCCOC(=O)N[C@H](C(=O)N[C@@H](Cc1ccccc1)[C@H](CN(Cc1ccc(-c2ccccn2)cc1)NC(=O)[C@@H](NC(=O)OC)C(C)(C)C)OC(=O)[C@H](Cc1ccccc1)NC(=O)[C@@H](N)Cc1ccccc1)C(C)(C)C.Cl [Phe-Phe-mPEG5-Atazanavir HCl, Phe-Phe-mPEG5-atazanavir hydrochloride] | – | – | – | – | – | – | 94.3 | 12.9 | 9.22 | 0.750 | – | – | – | – | – | 1.49 ± 0.412 | 2.01 | – | 31.8 ± 13.7 | 17.9 ± 9.09
COCCOCCOCCOC(=O)NC(C(=O)NC(Cc1ccccc1)C(CN(Cc1ccc(-c2ccccn2)cc1)NC(=O)C(NC(=O)OC)C(C)(C)C)OC(=O)COCCOC(=O)C(N)CC(C)C)C(C)(C)C.Cl (centres unmarked) [mPEG3-Atazanavir-CME-Leucine HCl, mPEG3-Atazanavir-CME-Leucine] | – | – | – | – | – | – | – | – | – | – | – | 85.9 | 4.39 | 17.4 | 9.00 | 3.74 ± 6.09 | – | – | 13.1 ± 17.2 | 11.5 ± 12.8
COCCOCCOCCOC(=O)NC(C(=O)NC(Cc1ccccc1)C(CN(Cc1ccc(-c2ccccn2)cc1)NC(=O)C(NC(=O)OC)C(C)(C)C)OC(=O)COCCOC(=O)C(N)Cc1ccccc1)C(C)(C)C.Cl (centres unmarked) [mPEG3-Atazanavir-CME-phenylalanine HCl, mPEG3-atazanavir-CME-phenylalanine] | – | – | – | – | – | – | – | – | – | – | – | 99.5 | 4.48 | 18.5 | 6.00 | 2.36 ± 3.57 | – | – | 10.2 ± 8.7 | 7.98 ± 6.06
COCCOCCOCCOC(=O)NC(C(=O)NC(Cc1ccccc1)C(CN(Cc1ccc(-c2ccccn2)cc1)NC(=O)C(NC(=O)OC)C(C)(C)C)OC(=O)CCCC(=O)O)C(C)(C)C (centres unmarked) [mPEG3-Atazanavir-glutaric acid] | – | – | – | – | – | – | – | – | – | – | – | 53.8 | – | 19.5 | 24.0 | 8.23 ± 3.48 | 7.69 ± 2.54 | 2.68 ± 1.51 | 351 ± 50.2 | 61.3 ± 52.7
CCOCO[C@@H](CN(Cc1ccc(-c2ccccn2)cc1)NC(=O)[C@@H](NC(=O)OC)C(C)(C)C)[C@H](Cc1ccccc1)NC(=O)[C@@H](NC(=O)OCCOCCOCCOC)C(C)(C)C [mPEG3-Atazanavir-methyl ethyl ether, mPEG3-Atazanavir Methyl Ethyl Ether] | – | – | – | – | – | – | – | – | – | – | 1.20 | 822 | 190 | 3.29 | 0.750 | 2.44 ± 0.920 | 9.41 ± 3.35 | 0.797 ± 0.260 | 6590 ± 2150 | 1600 ± 442
COCCOCCOCCOC(=O)N[C@H](C(=O)N[C@@H](Cc1ccccc1)[C@H](CN(Cc1ccc(-c2ccccn2)cc1)NC(=O)[C@@H](NC(=O)OC)C(C)(C)C)OCOC)C(C)(C)C [mPEG3-Atazanavir-methyl methyl ether, mPEG3-Atazanavir Methyl Methyl Ether] | – | – | – | – | – | – | – | – | – | – | – | 110 | 23.0 | 3.26 | 1.00 | 3.00 ± 0.350 | 4.03 ± 1.33 | 6.52 ± 3.57 | 7740 ± 935 | 1680 ± 150
CCOC(=O)OC(CN(Cc1ccc(-c2ccccn2)cc1)NC(=O)C(NC(=O)OC)C(C)(C)C)C(Cc1ccccc1)NC(=O)C(NC(=O)OCCOCCOCCOC)C(C)(C)C (centres unmarked) [mPEG3-atazanavir ethyl carbonate, mPEG3-Atazanavir Ethyl Carbonate] | – | – | – | – | – | – | – | – | – | – | 1.42 | 199 | 17.9 | 15.5 | 1.00 | 3.12 ± 0.285 | 6.56 ± 5.13 | 2.42 ± 1.20 | 4960 ± 442 | 1190 ± 294
COCCOCCOCCOC(=O)NC(C(=O)NC(Cc1ccccc1)C(CN(Cc1ccc(-c2ccccn2)cc1)NC(=O)C(NC(=O)OC)C(C)(C)C)OC(=O)COCCOC(=O)C(Cc1ccccc1)NC(=O)C(N)Cc1ccccc1)C(C)(C)C.Cl (centres unmarked) [mPEG3-atazanavir-CME-phe-phenylalanine, mPEG3-Atazanavir-CME-PhePhenylalanine] | – | – | – | – | – | – | – | – | – | – | – | 120 | 6.26 | 16.2 | 1.25 | 0.696 ± 0.381 | – | – | 0.919 ± 0.968 | 0.772 ± 0.253
CCOC(=O)O[C@@H](CN(Cc1ccc(-c2ccccn2)cc1)NC(=O)[C@@H](NC(=O)OC)C(C)(C)C)[C@H](Cc1ccccc1)NC(=O)[C@@H](NC(=O)OCCOCCOCCOCCOCCOC)C(C)(C)C.Cl [mPEG5-Atazanavir - Ethyl Carbonate HCl, mPEG5-Atazanavir Ethyl Carbonate] | – | – | – | – | – | 2.76 | 93.2 | 16.7 | 8.51 | 2.00 | – | – | – | – | – | 2.6 ± 0.514 | 7.46 ± 4.14 | 2.19 ± 0.700 | 2250 ± 389 | 740 ± 253
COCCOCCOCCOCCOCCOC(=O)NC(C(=O)NC(Cc1ccccc1)C(CN(Cc1ccc(-c2ccccn2)cc1)NC(=O)C(NC(=O)OC)C(C)(C)C)OC(=O)COCCOC(=O)C(N)CC(C)C)C(C)(C)C.Cl (centres unmarked) [mPEG5-Atazanavir-CME-Leucine HCl, mPEG5-Atazanavir-CME-Leucine] | – | – | – | – | – | – | 65.6 | 2.88 | 16.5 | 9.00 | – | – | – | – | – | 0.250 ± 0.000 | – | – | 0.119 ± 0.0826 | 0.45 ± 0.330
COCCOCCOCCOCCOCCOC(=O)NC(C(=O)NC(Cc1ccccc1)C(CN(Cc1ccc(-c2ccccn2)cc1)NC(=O)C(NC(=O)OC)C(C)(C)C)OC(=O)COCCOC(=O)C(N)Cc1ccccc1)C(C)(C)C.Cl (centres unmarked) [mPEG5-Atazanavir-CME-phenylalanine HCl] | – | – | – | – | – | – | 54.1 | 2.84 | 14.0 | 12.0 | – | – | – | – | – | 0.25 | – | – | 0.0554 ± 0.096 | 0.222 ± 0.384
